Laboratory results reported in US9751887B2, “Imidazo[1,2-b]pyridazine derivatives as kinase inhibitors” (Daiichi Sankyo Company, Limited, priority 2012, dated 2017).

Key:
ROS1 [1] = biological target: T1, ROS1 (Homo sapiens, UniProt P08922); experiment: ROS1 kinase inhibitory activity evaluation (mobility shift, EZ Reader II); assay type: biochemical; conditions: ROS1 25 pg/μL, FL-Peptide 22 substrate, three separate measurements
T1 construct: purchased Carna Biosciences 08-163
Method: Next, a substrate reaction solution was prepared. […] Then, the reaction stop solution was added thereto at a concentration of 40 μL/well. Substrate phosphorylation intensity was measured using EZ Reader II (Caliper Life Sciences).

[2] = system: HCC78 cells having ROS1 fusion gene; experiment: HCC78 cell growth assay (CellTiter-Glo); assay type: cell-based; conditions: Homo sapiens, HCC78, 72 h, 72 hours culture, 2% FBS medium, luminescence, four separate measurements; read-out: growth inhibitory effect on HCC78 cells having ROS1 fusion gene IC50
ROS1 [3] = biological target: T1, ROS1; experiment: ROS1 autophosphorylation inhibitory activity evaluation (ADP-Glo); assay type: biochemical; conditions: 200 nM inactive ROS1, ATP 1 mM, 25° C. 1.5 hours, ADP generated, four separate measurements
Method in brief: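 IC50 was derived by curve fitting of ADP output measured with ADP-Glo reagents. The output reflects ROS1 self-phosphorylation over 1.5 hours at 25° C. Buffer was HEPES pH 7.5 with MgCl2, Brij-58 and DTT, and ATP was 1 mM final.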

T1 sequence (P08922 28-2347): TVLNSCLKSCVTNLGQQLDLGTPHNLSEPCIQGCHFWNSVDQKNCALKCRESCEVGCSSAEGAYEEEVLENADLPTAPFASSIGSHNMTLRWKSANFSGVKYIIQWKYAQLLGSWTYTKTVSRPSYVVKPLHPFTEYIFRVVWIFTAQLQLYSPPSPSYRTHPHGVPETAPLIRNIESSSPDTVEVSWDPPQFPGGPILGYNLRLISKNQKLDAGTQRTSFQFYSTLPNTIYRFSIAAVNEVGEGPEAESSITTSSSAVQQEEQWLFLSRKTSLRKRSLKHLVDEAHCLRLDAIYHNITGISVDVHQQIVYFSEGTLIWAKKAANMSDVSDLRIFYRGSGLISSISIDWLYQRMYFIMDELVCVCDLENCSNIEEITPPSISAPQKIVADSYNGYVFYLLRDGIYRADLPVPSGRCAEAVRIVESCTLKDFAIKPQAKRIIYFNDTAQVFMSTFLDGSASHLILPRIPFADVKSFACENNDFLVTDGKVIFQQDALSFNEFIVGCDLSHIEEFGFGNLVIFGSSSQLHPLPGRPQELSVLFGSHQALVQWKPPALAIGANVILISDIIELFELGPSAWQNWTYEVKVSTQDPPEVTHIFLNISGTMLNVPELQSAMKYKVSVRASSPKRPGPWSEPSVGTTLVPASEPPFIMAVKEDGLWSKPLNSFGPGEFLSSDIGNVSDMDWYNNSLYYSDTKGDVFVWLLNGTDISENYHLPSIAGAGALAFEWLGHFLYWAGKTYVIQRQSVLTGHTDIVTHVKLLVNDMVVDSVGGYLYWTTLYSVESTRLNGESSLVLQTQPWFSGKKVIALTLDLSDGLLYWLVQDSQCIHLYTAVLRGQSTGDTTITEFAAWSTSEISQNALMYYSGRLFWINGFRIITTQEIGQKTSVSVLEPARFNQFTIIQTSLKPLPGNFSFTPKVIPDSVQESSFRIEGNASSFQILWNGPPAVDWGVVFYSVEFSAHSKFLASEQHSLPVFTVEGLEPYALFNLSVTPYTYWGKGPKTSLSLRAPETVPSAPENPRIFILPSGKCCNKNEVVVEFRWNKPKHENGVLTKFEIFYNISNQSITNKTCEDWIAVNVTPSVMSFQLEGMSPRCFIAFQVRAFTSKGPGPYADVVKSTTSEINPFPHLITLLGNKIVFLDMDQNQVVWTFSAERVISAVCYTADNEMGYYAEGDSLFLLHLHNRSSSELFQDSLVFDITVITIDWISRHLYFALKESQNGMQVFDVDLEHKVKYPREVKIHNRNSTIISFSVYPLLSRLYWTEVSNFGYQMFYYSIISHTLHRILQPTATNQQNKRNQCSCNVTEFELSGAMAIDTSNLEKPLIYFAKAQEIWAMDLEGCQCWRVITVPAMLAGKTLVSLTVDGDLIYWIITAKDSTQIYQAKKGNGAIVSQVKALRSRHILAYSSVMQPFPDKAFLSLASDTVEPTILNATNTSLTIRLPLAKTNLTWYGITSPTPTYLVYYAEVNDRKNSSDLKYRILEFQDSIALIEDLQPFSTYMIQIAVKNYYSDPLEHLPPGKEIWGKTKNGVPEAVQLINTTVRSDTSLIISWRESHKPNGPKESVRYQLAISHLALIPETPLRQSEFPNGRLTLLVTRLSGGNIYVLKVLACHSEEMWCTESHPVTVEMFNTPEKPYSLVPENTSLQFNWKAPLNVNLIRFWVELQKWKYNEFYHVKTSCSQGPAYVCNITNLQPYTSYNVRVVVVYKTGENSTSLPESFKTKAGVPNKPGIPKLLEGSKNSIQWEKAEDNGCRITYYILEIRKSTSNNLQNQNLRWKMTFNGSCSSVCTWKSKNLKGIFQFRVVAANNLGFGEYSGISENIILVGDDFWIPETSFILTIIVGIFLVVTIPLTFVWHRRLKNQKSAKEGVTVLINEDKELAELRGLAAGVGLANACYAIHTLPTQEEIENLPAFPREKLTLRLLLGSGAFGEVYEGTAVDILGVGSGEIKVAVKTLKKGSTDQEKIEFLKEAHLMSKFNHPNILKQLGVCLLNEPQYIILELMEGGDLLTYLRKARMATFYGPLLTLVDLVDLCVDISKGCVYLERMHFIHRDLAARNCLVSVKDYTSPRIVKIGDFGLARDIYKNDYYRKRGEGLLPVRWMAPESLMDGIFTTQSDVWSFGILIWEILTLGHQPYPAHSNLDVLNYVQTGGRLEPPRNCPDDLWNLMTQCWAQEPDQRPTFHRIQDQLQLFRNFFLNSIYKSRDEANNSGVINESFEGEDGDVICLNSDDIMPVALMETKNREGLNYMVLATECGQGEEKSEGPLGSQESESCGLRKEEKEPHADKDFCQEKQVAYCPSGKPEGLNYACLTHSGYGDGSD

SMILES	IC50 (ROS1 [1]) [nM]	IC50 [2] [nM]	IC50 (ROS1 [3]) [nM]
C[C@@H](Nc1ccc2ncc(-c3ccc(OC[C@@H]4C[C@H](F)CN4)nc3)n2n1)c1cccc(F)c1 [Example 47, N-[(1R)-1-(3-Fluorophenyl)ethyl]-3-[6-[[(2S,4S)-4-fluoropyrrolidin-2-yl]methoxy]-3-pyridyl]imidazo[1,2-b]pyridazin-6-amine]	< 1	< 20	< 20
C[C@@H](N)COc1cccc(-c2cnc3ccc(N[C@H](C)c4cccc(F)c4)nn23)c1 [Example 60, 3-[3-[(2R)-2-Aminopropoxy]phenyl]-N-[(1R)-1-(3-fluorophenyl)ethyl]imidazo[1,2-b]pyridazin-6-amine]	1 to 10	20 to 100	< 20
CC(Oc1ccc2ncc(-c3ccc(N4C[C@@H](N)CC4=O)cc3)n2n1)c1nccs1 (stereo partly drawn) [Example 105, (4S)-4-Amino-1-[4-[6-(1-thiazol-2-ylethoxy)imidazo[1,2-b]pyridazin-3-yl]phenyl]pyrrolidin-2-one]	10 to 60	100 to 600	20 to 100
c1ccc(CNc2ccc3ncc(-c4cccc(O[C@@H]5CCNC5)c4)n3n2)cc1 [Example 4, N-Benzyl-3-[3-[(3R)-pyrrolidin-3-yl]oxyphenyl]imidazo[1,2-b]pyridazin-6-amine]	1 to 10	100 to 600	100 to 150
CN(Cc1cccc(F)c1)c1ccc2ncc(-c3ccc(N4C[C@@H](N)CC4=O)c(F)c3)n2n1 [Example 83, (4S)-4-Amino-1-[2-fluoro-4-[6-[(3-fluorophenyl)methyl-methylamino]imidazo[1,2-b]pyridazin-3-yl]phenyl]pyrrolidin-2-one]	1 to 10	20 to 100	20 to 100
CN(Cc1cc(F)ccc1Cl)c1ccc2ncc(-c3ccc(N4C[C@@H](N)CC4=O)cc3)n2n1 [Example 99, (4S)-4-Amino-1-[4-[6-[(2-chloro-5-fluorophenyl)methyl-methylamino]imidazo[1,2-b]pyridazin-3-yl]phenyl]pyrrolidin-2-one]	1 to 10	20 to 100	20 to 100
C[C@@H](Nc1ccc2ncc(-c3ccc(N4C[C@@H](N)CC4=O)cc3F)n2n1)c1cccc(F)c1 [Example 93, (4S)-4-Amino-1-[3-fluoro-4-[6-[[(1R)-1-(3-fluorophenyl)ethyl]amino]imidazo[1,2-b]pyridazin-3-yl]phenyl]pyrrolidin-2-one]	< 1	< 20	< 20
N#Cc1cccc(COc2ccc3ncc(-c4ccc(N5C[C@@H](N)CC5=O)cc4)n3n2)c1 [Example 101, 3-[[3-[4-[(4S)-4-Amino-2-oxopyrrolidin-1-yl]phenyl]imidazo[1,2-b]pyridazin-6-yl]oxymethyl]benzonitrile]	1 to 10	100 to 600	20 to 100
CN(Cc1cncc(F)c1)c1ccc2ncc(-c3ccc(N4C[C@@H](N)CC4=O)cc3)n2n1 [Example 118, (4S)-4-Amino-1-[4-[6-[(5-fluoro-3-pyridyl)methyl-methylamino]imidazo[1,2-b]pyridazin-3-yl]phenyl]pyrrolidin-2-one]	1 to 10	< 20	< 20
C[C@@H](Nc1ccc2ncc(-c3ccc(OCCNC4CC4)cc3)n2n1)c1cccc(F)c1 [Example 37, 3-[4-[2-(Cyclopropylamino)ethoxy]phenyl]-N-[(1R)-1-(3-fluorophenyl)ethyl]imidazo[1,2-b]pyridazin-6-amine]	< 1	20 to 100	20 to 100
C[C@@H](Nc1ccc2ncc(-c3ccc(OCC(N)CO)cc3)n2n1)c1cccc(F)c1 (stereo partly drawn) [Example 45, 2-Amino-3-[4-[6-[[(1R)-1-(3-fluorophenyl)ethyl]amino]imidazo[1,2-b]pyridazin-3-yl]phenoxy]propan-1-ol]	< 1	< 20	< 20
C[C@@H](Nc1ccc2ncc(-c3cc(F)cc(OC[C@@H]4CCN4)c3)n2n1)c1cccc(F)c1 [Example 62, 3-[3-[[(2S)-Azetidin-2-yl]methoxy]-5-fluoro-phenyl]-N-[(1R)-1-(3-fluorophenyl)ethyl]imidazo[1,2-b]pyridazin-6-amine]	< 1	20 to 100	20 to 100
CN(Cc1cccc(F)c1)c1ccc2ncc(-c3ccc(N4C[C@@H](N)CC4=O)nc3)n2n1 [Example 128, (4S)-4-Amino-1-[5-[6-[(3-fluorophenyl)methyl-methylamino]imidazo[1,2-b]pyridazin-3-yl]-2-pyridyl]pyrrolidin-2-one]	< 1	20 to 100	< 20
C[C@@H](Nc1ccc2ncc(-c3ccc(O[C@@H]4CCNC4)cc3)n2n1)c1cccc(F)c1 [Example 22, N-[(1R)-1-(3-Fluorophenyl)ethyl]-3-[4-[(3R)-pyrrolidin-3-yl]oxyphenyl]imidazo[1,2-b]pyridazin-6-amine]	< 1	20 to 100	< 20
CC(Oc1ccc2ncc(-c3ccc(N4C[C@@H](N)CC4=O)cc3)n2n1)c1cc(F)ccc1F (stereo partly drawn) [Example 104, (4S)-4-Amino-1-[4-[6-[1-(2,5-difluorophenyl)ethoxy]imidazo[1,2-b]pyridazin-3-yl]phenyl]pyrrolidin-2-one]	< 1	20 to 100	< 20
C[C@@H](Nc1ccc2ncc(-c3ccc(OCC4CNC4)cc3)n2n1)c1cccc(F)c1 [Example 27, 3-[4-(Azetidin-3-ylmethoxy)phenyl]-N-[(1R)-1-(3-fluorophenyl)ethyl]imidazo[1,2-b]pyridazin-6-amine]	1 to 10	100 to 600	< 20
c1ccc(CNc2ccc3ncc(-c4ccc(OCC[C@@H]5CCCN5)cc4)n3n2)cc1 [Example 6, N-Benzyl-3-[4-[2-[(2S)-pyrrolidin-2-yl]ethoxy]phenyl]imidazo[1,2-b]pyridazin-6-amine]	1 to 10	20 to 100	20 to 100
C[C@@H](Nc1ccc2ncc(-c3ccc(OC[C@@H](N)[C@@H](C)O)cc3)n2n1)c1cccc(F)c1 [Example 54, (2R,3R)-3-Amino-4-[4-[6-[[(1R)-1-(3-fluorophenyl)ethyl]amino]imidazo[1,2-b]pyridazin-3-yl]phenoxy]butan-2-ol]	< 1	< 20	< 20
C[C@@H](Nc1ccc2ncc(-c3ccc(O[C@H]4CCC[C@H]4N)cc3)n2n1)c1cccc(F)c1 [Example 40, 3-[4-[(1S,2R)-2-Aminocyclopentoxy]phenyl]-N-[(1R)-1-(3-fluorophenyl)ethyl]imidazo[1,2-b]pyridazin-6-amine]	< 1	< 20	< 20
CN(Cc1cccc(F)c1F)c1ccc2ncc(-c3ccc(N4C[C@@H](N)CC4=O)nc3)n2n1 [Example 132, (4S)-4-Amino-1-[5-[6-[(2,3-difluorophenyl)methyl-methylamino]imidazo[1,2-b]pyridazin-3-yl]-2-pyridyl]pyrrolidin-2-one]	1 to 10	20 to 100	20 to 100
C[C@@H](Nc1ccc2ncc(-c3ccc(OC[C@@H]4CCN4)c(F)c3)n2n1)c1cccc(F)c1 [Example 44, 3-[4-[[(2S)-Azetidin-2-yl]methoxy]-3-fluoro-phenyl]-N-[(1R)-1-(3-fluorophenyl)ethyl]imidazo[1,2-b]pyridazin-6-amine]	< 1	< 20	< 20
C[C@@H](Nc1ccc2ncc(-c3ccc(O[C@H]4C[C@H](N)C4)cc3)n2n1)c1cccc(F)c1 [Example 51]	1 to 10	20 to 100	< 20
CN(Cc1ccccc1)c1ccc2ncc(-c3ccc(N4C[C@@H](N)CC4=O)cc3)n2n1 [Example 94, (4S)-4-Amino-1-[4-[6-[benzyl(methyl)amino]imidazo[1,2-b]pyridazin-3-yl]phenyl]pyrrolidin-2-one]	1 to 10	100 to 600	20 to 100
C[C@@H](Nc1ccc2ncc(-c3ccc(N4C[C@@H](N)CC4=O)c(F)c3)n2n1)c1cccc(F)c1 [Example 92, (4S)-4-Amino-1-[2-fluoro-4-[6-[[(1R)-1-(3-fluorophenyl)ethyl]amino]imidazo[1,2-b]pyridazin-3-yl]phenyl]pyrrolidin-2-one]	< 1	< 20	< 20
